Results taken from PubChem BioAssay (NCI).
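Following 48 hours of exposure in 96-well plates, responses at five concentrations were used to interpolate endpoints linearly. At the GI50, growth is halved. TGI: total growth inhibition.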

Experiments:
Assay in all cases: growth of human tumour cells (NCI), 48 h
[1] = tested on: SK-MEL-5 melanoma
[2] = tested on: MDA-MB-231 breast
[3] = tested on: COLO 205 colon
[4] = tested on: U251 CNS
[5] = tested on: RPMI-8226 leukemia
[6] = tested on: SK-MEL-2 melanoma
[7] = tested on: HS 578T breast
[8] = tested on: UACC-257 melanoma
[9] = tested on: OVCAR-4 ovarian
[10] = tested on: MOLT-4 leukemia
[11] = tested on: SK-OV-3 ovarian
[12] = tested on: 786-0 renal
[13] = tested on: A498 renal
[14] = tested on: HL-60(TB) leukemia
[15] = tested on: MALME-3M melanoma
[16] = tested on: K-562 leukemia
[17] = tested on: LOX IMVI melanoma
[18] = tested on: SNB-75 CNS
[19] = tested on: IGROV1 ovarian
[20] = tested on: HOP-92 NSCLC
[21] = tested on: TK-10 renal
[22] = tested on: NCI-H522 lung
[23] = tested on: SF-268 CNS
[24] = tested on: OVCAR-8 ovarian
[25] = tested on: UACC-62 melanoma
[26] = tested on: NCI-H23 lung
[27] = tested on: CCRF-CEM leukemia
[28] = tested on: UO-31 renal
[29] = tested on: CAKI-1 renal
[30] = tested on: SF-295 CNS
[31] = tested on: PC-3 prostate
[32] = tested on: SF-539 CNS
[33] = tested on: SN12C renal
[34] = tested on: MDA-MB-435
[35] = tested on: HT29 colon
[36] = tested on: ACHN renal
[37] = tested on: KM12 colon
[38] = tested on: HOP-62 NSCLC
[39] = tested on: SW-620 colon
[40] = tested on: M14 melanoma
[41] = tested on: RXF 393 renal
[42] = tested on: SK-MEL-28 melanoma
[43] = tested on: NCI/ADR-RES ovarian
[44] = tested on: NCI-H460 lung
[45] = tested on: OVCAR-5 ovarian
[46] = tested on: A549 NSCLC
[47] = tested on: HCC-2998 colon
[48] = tested on: EKVX NSCLC
[49] = tested on: SR leukemia
[50] = tested on: HCT-116 colon
[51] = tested on: SNB-19 CNS
[52] = tested on: HCT-15 colon
[53] = tested on: BT-549 breast
[54] = tested on: OVCAR-3 ovarian
[55] = tested on: DU-145 prostate
[56] = tested on: NCI-H226 lung
[57] = tested on: MCF7 breast

For `Fc1c[c-]c(-c2ccccn2)c(F)c1.Fc1c[c-]c(-c2ccccn2)c(F)c1.[Cl][Pt+].[Cl][Pt+].c1ccc([PH+](C[PH+](c2ccccc2)c2ccccc2)c2ccccc2)cc1`, the GI50 [1] was 164 nM, the TGI [1] was 307 nM and the GI50 [2] was 139 nM. The TGI [2] was 373 nM, the GI50 [3] was 132 nM and the TGI [3] was 362 nM. The GI50 [4] was 63 nM, the TGI [4] was 218 nM and the GI50 [5] was 80 nM. The TGI [5] was 466 nM, the GI50 [6] was 193 nM and the TGI [6] was 479 nM. The GI50 [7] was 275 nM, the TGI [7] was 1170 nM and the GI50 [8] was 235 nM. The TGI [8] was 815 nM, the GI50 [9] was 154 nM and the TGI [9] was 977 nM. For the same compound, the GI50 [10] was 328 nM, the GI50 [11] was 330 nM and the TGI [11] was 910 nM. It also gave a GI50 [12] of 184 nM, a TGI [12] of 380 nM and a GI50 [13] of 164 nM. It also gave a TGI [13] of 461 nM, a GI50 [14] of 271 nM and a TGI [14] of 813 nM. The GI50 [15] was 264 nM, the TGI [15] was 758 nM and the GI50 [16] was 95.5 nM. The TGI [16] was greater than 100000 nM, the GI50 [17] was 380 nM and the TGI [17] was 1380 nM.

Work on `O=C(OCc1ccc2cccc(O)c2n1)N1CCN(C(=O)c2cc3cc(F)ccc3[nH]2)CC1` yielded a GI50 [18] of 1020 nM, a TGI [18] of 2240 nM and a GI50 [1] of 1690 nM. The TGI [1] was 3070 nM, the GI50 [19] was 403 nM and the TGI [19] was 1640 nM. The GI50 [20] was 383 nM, the TGI [20] was 1940 nM and the GI50 [2] was 966 nM. It also gave a TGI [2] of 2230 nM, a GI50 [21] of 1770 nM and a TGI [21] of 3160 nM. The GI50 [22] was 1020 nM, the TGI [22] was 2470 nM and the GI50 [23] was 1450 nM. It also gave a TGI [23] of 3040 nM, a GI50 [24] of 1010 nM and a TGI [24] of 2470 nM. The GI50 [25] was 1170 nM, the TGI [25] was 2430 nM and the GI50 [26] was 1620 nM. It also gave a TGI [26] of 3450 nM, a GI50 [27] of 242 nM and a TGI [27] of 995 nM. For the same compound, the GI50 [3] was 622 nM, the TGI [3] was 2070 nM and the GI50 [4] was 1410 nM. It also gave a TGI [4] of 2740 nM, a GI50 [28] of 358 nM and a TGI [28] of 1930 nM. For the same compound, the GI50 [29] was 354 nM, the TGI [29] was 1660 nM and the GI50 [30] was 5690 nM. The TGI [30] was 18600 nM, the GI50 [5] was 251 nM and the TGI [5] was 787 nM. It also gave a GI50 [31] of 513 nM, a TGI [31] of 2020 nM and a GI50 [32] of 1150 nM. For the same compound, the TGI [32] was 2360 nM, the GI50 [33] was 1210 nM and the TGI [33] was 2490 nM. It also gave a GI50 [6] of 1350 nM, a TGI [6] of 2780 nM and a GI50 [34] of 1190 nM. For the same compound, the TGI [34] was 2800 nM, the GI50 [35] was 1140 nM and the TGI [35] was 3050 nM. The GI50 [36] was 615 nM, the TGI [36] was 1920 nM and the GI50 [7] was 1420 nM. It also gave a TGI [7] of 5720 nM, a GI50 [37] of 1610 nM and a TGI [37] of 3460 nM. The GI50 [38] was 1370 nM, the TGI [38] was 3160 nM and the GI50 [39] was 420 nM. The TGI [39] was 1910 nM, the GI50 [40] was 1130 nM and the TGI [40] was 2500 nM. It also gave a GI50 [8] of 1460 nM, a TGI [8] of 2890 nM and a GI50 [9] of 1350 nM. For the same compound, the TGI [9] was 2740 nM, the GI50 [10] was 334 nM and the TGI [10] was 1370 nM. For the same compound, the GI50 [41] was 981 nM, the TGI [41] was 2170 nM and the GI50 [42] was 1680 nM. For the same compound, the TGI [42] was 3050 nM, the GI50 [11] was 2770 nM and the TGI [11] was 11900 nM. For the same compound, the GI50 [43] was 1760 nM, the TGI [43] was 6070 nM and the GI50 [12] was 1420 nM. It also gave a TGI [12] of 2820 nM, a GI50 [44] of 1340 nM and a TGI [44] of 3640 nM. It also gave a GI50 [13] of 1710 nM, a TGI [13] of 3250 nM and a GI50 [45] of 1700 nM. It also gave a TGI [45] of 3160 nM, a GI50 [46] of 1620 nM and a TGI [46] of 3350 nM. The GI50 [47] was 1690 nM, the TGI [47] was 3260 nM and the GI50 [14] was 1310 nM. The TGI [14] was 3470 nM, the GI50 [48] was 1400 nM and the TGI [48] was 2710 nM. It also gave a GI50 [15] of 1460 nM, a TGI [15] of 2780 nM and a GI50 [49] of 272 nM. It also gave a TGI [49] of 1600 nM, a GI50 [50] of 357 nM and a TGI [50] of 1320 nM. For the same compound, the GI50 [51] was 1550 nM, the TGI [51] was 2920 nM and the GI50 [16] was 435 nM. For the same compound, the TGI [16] was 2400 nM, the GI50 [52] was 452 nM and the TGI [52] was 1800 nM. The GI50 [53] was 1000 nM, the TGI [53] was 2210 nM and the GI50 [54] was 460 nM. The TGI [54] was 1770 nM, the GI50 [17] was 1360 nM and the TGI [17] was 2750 nM. It also gave a GI50 [55] of 1280 nM and a TGI [55] of 2670 nM.

With `O=[N+]([O-])c1ccccc1S(=O)(=O)c1cc(Cl)cc2c1NCCC2` the TGI [18] was greater than 100000 nM, the TGI [1] was 86100 nM and the TGI [19] was greater than 100000 nM. The TGI [20] was greater than 100000 nM, the TGI [2] was greater than 100000 nM and the TGI [21] was greater than 100000 nM. It also gave a TGI [56] greater than 100000 nM, a TGI [23] greater than 100000 nM and a TGI [24] greater than 100000 nM. The TGI [25] was greater than 100000 nM, the TGI [27] was greater than 100000 nM and the TGI [3] was greater than 100000 nM. It also gave a TGI [28] greater than 100000 nM, a TGI [29] greater than 100000 nM and a TGI [30] greater than 100000 nM. It also gave a TGI [5] greater than 100000 nM, a TGI [57] greater than 100000 nM and a TGI [31] greater than 100000 nM. The TGI [32] was greater than 100000 nM, the TGI [33] was greater than 100000 nM and the TGI [6] was greater than 100000 nM. For the same compound, the TGI [34] was greater than 100000 nM, the TGI [35] was greater than 100000 nM and the TGI [36] was greater than 100000 nM. For the same compound, the TGI [7] was greater than 100000 nM, the TGI [37] was greater than 100000 nM and the TGI [38] was greater than 100000 nM. For the same compound, the TGI [39] was greater than 100000 nM, the TGI [40] was greater than 100000 nM and the TGI [8] was 96700 nM. The TGI [9] was greater than 100000 nM, the TGI [10] was greater than 100000 nM and the TGI [41] was greater than 100000 nM. For the same compound, the TGI [42] was greater than 100000 nM, the TGI [11] was greater than 100000 nM and the TGI [43] was greater than 100000 nM. It also gave a TGI [12] greater than 100000 nM, a TGI [44] greater than 100000 nM and a TGI [13] greater than 100000 nM. It also gave a TGI [45] greater than 100000 nM, a TGI [46] greater than 100000 nM and a TGI [47] greater than 100000 nM. The TGI [14] was greater than 100000 nM, the TGI [48] was greater than 100000 nM and the TGI [15] was 74100 nM. For the same compound, the TGI [49] was greater than 100000 nM, the TGI [50] was greater than 100000 nM and the TGI [51] was greater than 100000 nM. It also gave a TGI [16] greater than 100000 nM, a TGI [52] greater than 100000 nM and a TGI [53] greater than 100000 nM. For the same compound, the TGI [54] was greater than 100000 nM, the TGI [17] was greater than 100000 nM and the TGI [55] was greater than 100000 nM.
